The results in this text go back to patent US20230331707A1, “PROGRAMMED CELL NECROSIS INHIBITOR, PREPARATION METHOD THEREFOR, AND USE THEREOF” (Shanghai Institute of Organic Chemistry, Chinese Academy of …, priority 2020, published 2023).

Where two headings read alike, the source gives them in different places. A value given as a limit tells only on which side of the number the result lay.

Data set [1] has as its system MEFs cells expressing RIPK1 S161E mutant. Nature of the data set: TSZ-induced programmed necrosis in MEFs cells expressing RIPK1 S161E mutant. In kind it is cell-based, mouse. The source says:
(§1) The adopted biological test protocol was: the effect of compounds on programmed necrosis in MEFs cells (mouse embryonic fibroblasts) with RIPK1 S161E mutation.
(§2) In order to verify the inhibitory effect of the compound of the present invention on the highly activated RIPK1 kinase at the cellular level, MEFs cells stably expressing RIPK1 S161E (simulating the activation state of RIPK1 after phosphorylation) were selected, TNFα-SM164-zVAD (Caspase inhibitor for inhibiting apoptosis) (TSZ) was used in combination to induce programmed cell necrosis, and cell viability was calculated by detecting chemiluminescence values, thereby obtaining the biological activity of the compound in inhibiting programmed necrosis.
(§3) Methods: MEFs cells replenished by RIPK1: WT-RIPK1, S161A-RIPK1 and S161E-RIPK1 were replenished in RIPK1 stable knockout cells respectively. After stable expression and being cultured to logarithmic growth phase, the cells were collected, and centrifuged at 1000 rpm for 5 min. The supernatant was discarded. Cell concentration was adjusted to 5×10^4/mL, and cells were inoculated into 384-well plates with 40 μL per well. Cell culture medium diluted SM164 (100 nM), zVAD (50 μM) and compound, each […], were added to the corresponding wells. After pretreatment at 37° C. for 1 h, 5 μL of cell culture medium diluted TNF (50 ng/mL) was added to each well in the stimulated group and 5 μL of culture medium was added to the control group. […] The unstimulated DMSO control wells (Ctrl) were taken as 100% cell viability. EC50 values of the compounds were calculated using Prism Graphpad statistical software.

Data set [2] deals with MEFs cells expressing RIPK1 WT. Kind of data set: TSZ-induced programmed necrosis in MEFs cells expressing RIPK1 WT. In kind it is cell-based, mouse.
Excerpt: as §1, §2, §3

The next data set relates to FADD−/− Jurkat cells. Kind of data set: Inhibition of TNF-induced programmed necrosis of FADD deficient Jurkat cells (Cell Titer-Glo viability). In kind it is cell-based. As to conditions: for EC50: Homo sapiens, Jurkat; for activity of inhibition of programmed necrosis compared with GSK2982772: human FADD-deficient Jurkat cells, TNFα alone or in combination with SM164. The method, boiled down: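 FADD-deficient human Jurkat T leukemia cells in log phase were adjusted to 2.5×10^5/mL and plated at 40 μl per well in 384-well plates. Compounds were added, with SM164 (50 nM) where used, for a 1 h pretreatment at 37° C. TNFα (50 ng/mL) was then added, and cells were incubated 14 h at 37° C, 5% CO2. Viability was read as ATP luminescence with Cell Titer-Glo after 30 min at room temperature, with unstimulated DMSO wells set as 100%. EC50 values were calculated in Prism Graphpad.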
(In general: Cellular ATP, detected with luciferase, serves as a proxy for viable cell number.)

A further data set concerns L929 cells. Nature of the data set: Inhibition of TNF-induced programmed necrosis of L929 cells (Cell Titer-Glo viability). It is filed as cell-based, mouse. As to conditions: for EC50: Mus musculus; for inhibition of programmed necrosis (in words): mouse-derived L929 cells. The method, boiled down:
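Mouse L929 fibroblasts were diluted to 6.25×10^4/ml, plated at 40 μl per well in 384-well plates, and incubated 12 hours at 37° C., 5% CO2. Compounds were added, with SM164 (500 nM) for the combination arm, and pretreated 1 h before TNFα (500 ng/mL). After 14 h, viability was read by Cell Titer-Glo luminescence against unstimulated DMSO controls, and EC50 values were fitted in Prism Graphpad.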

Data set [3] concerns RIPK1^K612R/K612R mutant mice. Nature of the data set: Digestive system inflammation in RIPK1 K612R/K612R mutant mice. It is filed as in vivo. As to conditions: gavage 25 mg/kg, control Nec-1s 50 mg/kg. The source says: The adopted biological test scheme was: RIPK1^K612R/K612R mutant mice were used as model mice to test the effect of representative compound QY-10-40 or QY-13-19 on spontaneous intestinal inflammation.
K612R mutation leads to decreased in intracellular RIPK1 level but abnormal activation, making it sensitive to programmed necrosis and caspase-1 activation, and responding to TLRs signaling. RIPK1^K612R/K612R mice will appear responses such as age-dependent reduced RIPK1 expression and abnormal activation, spontaneous intestinal inflammation and splenomegaly.
Methods: The compounds to be tested were dissolved in 0.5% carboxymethyl cellulose according to the required concentration one day in advance, and sonicated overnight. Mice were gavaged in a volume of 0.1 ml/10 g body weight. Body weight was measured three times a week, and samples were collected at the end of the experiment. The effect of the compounds was calculated using Prism Graphpad statistical software.

The nature of data set [4]: Liver microsomal stability test, mouse. It is filed as in vitro ADME. As to conditions: mouse, liver microsomes, mouse liver microsomes, NADPH, 37° C.; read-out: T1/2 (min) Mouse. The text has this: (§4) The adopted biological test protocol was: testing the half-life of the compound in human- or mouse-derived liver microsomes.
(§5) Liver microsomes contain many enzymes involved in drug metabolism, especially cytochrome P-450, and therefore it is one of the major tissues involved in drug metabolism in living organisms. There are some correlations between the stability of the compound in liver microsomes and the pharmacogenetic stability thereof in vivo. Therefore, the relative stability of compounds in vivo can be roughly predicted by testing the half-life of different compounds in human- or mouse-derived liver microsomes. The specific methods were as follows:
(§6) Methods: 0.75 μL of 0.5 mM samples (compounds to be tested and control verapamil), 9.38 μL of 20 mg/mL liver microsomes (Human and Mouse) were taken and added to 239.88 μL PBS (on ice), and divided into 30 μL/tube samples respectively. The samples were incubated at 37° C. in a constant temperature water bath for 5 min, and then all samples were taken out. At zero-time, control group was added with 90 μL of ice acetonitrile first, and then added with 15 μL of 3 mM NADPH solution sequentially, and incubated at 37° C. in a constant temperature water bath. The corresponding samples were taken out after 5 min, 10 min, 20 min, 30 min and 60 min, respectively, and quenched by adding 90 μL of ice acetonitrile. All samples were centrifuged at 10000 rpm for 10 min, and the supernatants were taken and placed in a liquid phase vial waiting for LC-MS analysis.
(Liver microsomes are vesicles of endoplasmic reticulum, rich in cytochrome P450 enzymes.)

Data set [5] in a line: Liver microsomal stability test, human. Conditions: human, liver microsomes, human liver microsomes, NADPH, 37° C.; read-out: T1/2 (min) Human. In kind it is in vitro ADME.
Excerpt: as §4, §5, §6

[6] abbreviates: 14 h, FADD−/− Jurkat cells, stimulated with TNFα + SM164, read-out: EC50 (μM) FADD−/− Jurkat cells (human) TNFα + SM164.
Where [7] appears, read: L929, L929 cells, stimulated with TNFα + SM164, read-out: EC50 (μM) L929 cells (mouse) TNFα + SM164.
Setting [8] is: L929, L929 cells, stimulated with TNFα alone, read-out: EC50 (μM) L929 cells (mouse) TNFα.
Setting [9] is: FADD−/− Jurkat cells, stimulated with TNFα alone, read-out: EC50 (μM) FADD−/− Jurkat cells (human) TNFα.

As to `CN1C(=O)[C@@H](NC(=O)c2n[nH]c(Cc3ccccc3)n2)COc2ccccc21` [GSK2982772, reference compound], the “inhibition of programmed necrosis” value in data set [1] (10 μM) is listed as “only shows weak inhibition”; in data set [2] (10 μM) it was “can effectively inhibit the occurrence of programmed necrosis”. The EC50 in the data set with FADD−/− Jurkat cells (setting [6]) was 4 nM; in the data set on FADD−/− Jurkat cells (read-out: EC50 (μM) FADD−/− Jurkat cells (human) TNFα) it was 0.68 nM; in the data set with L929 cells (setting [7]) it was over 10000 nM; in the data set with L929 cells (setting [8]), 2510 nM. For the same compound, the “inhibition of programmed necrosis (in words)” value with L929 cells is “almost inactive”.
Regarding `CN1C(=O)N[C@H](Cc2c[nH]c3c(Cl)cccc23)C1=O` [Nec-1s, reference compound], the “inhibition of programmed necrosis” value in data set [1] (10 μM) is recorded as “does not exhibit inhibition”; in data set [2] (10 μM) it was “can effectively inhibit the occurrence of programmed necrosis”. For the same compound, the EC50 was 900 nM in the data set with FADD−/− Jurkat cells (setting [6]); 228 nM in the data set with FADD−/− Jurkat cells (setting [9]); 443 nM in the data set on L929 cells (L929, read-out: EC50 (μM) L929 cells (mouse) TNFα).
Regarding `Cn1nnc(C(=O)NCc2ccc(-n3cnc4c(N)ncnc43)cc2)c1Cc1ccccc1` [QY-13-19, N-(4-(6-amino-9H-purin-9-yl)benzyl)-5-benzyl-1-methyl-1H-1,2,3-triazole-4-carboxamide], the “effect on body weight and spleen coefficient” value in data set [3] was “can inhibit the effect of the digestive system inflammation”. For the same compound, the EC50 with FADD−/− Jurkat cells (setting [6]) stood at 0.516 nM; with FADD−/− Jurkat cells (setting [9]), 0.0557 nM; in the data set with L929 cells (setting [7]) it was 3.09 nM; in the data set with L929 cells (setting [8]) it was 1.46 nM. Moreover, the “activity of inhibition of programmed necrosis compared with GSK2982772” value with FADD−/− Jurkat cells is reported as “stronger activity”.
For the compound `COc1cc2ncn(-c3ccc(CNC(=O)c4cnn(C)c4Cc4ccccc4)cc3)c2cc1OC` [QY-11-76], the “inhibition of programmed necrosis” value in data set [1] (600 nM) is “can significantly inhibit occurrence of programmed necrosis”; in data set [2] (600 nM), “can effectively inhibit the occurrence of programmed necrosis”. For the same compound, the EC50 in the data set on FADD−/− Jurkat cells (setting [6]) was 0.05 nM; with FADD−/− Jurkat cells (setting [9]), 0.0243 nM; in the data set with L929 cells (setting [7]), 0.432 nM; with L929 cells (setting [8]), 0.0598 nM. Besides, the “activity of inhibition of programmed necrosis compared with GSK2982772” value in the data set with FADD−/− Jurkat cells is given as “stronger activity”. Besides, in the data set on L929 cells, the “inhibition of programmed necrosis (in words)” value is listed as “excellently inhibit the occurrence of programmed necrosis”.
Take `Cn1ncc(C(=O)NCc2ccc(-n3cnc4c(N)nccc43)cc2)c1Cc1ccccc1` [QY-11-77]: the “inhibition of programmed necrosis” value in data set [1] (600 nM) was “can significantly inhibit occurrence of programmed necrosis”; in data set [2] (600 nM) it was “can effectively inhibit the occurrence of programmed necrosis”. The EC50 worked out at 0.838 nM in the data set with FADD−/− Jurkat cells (setting [6]), 0.012 nM with FADD−/− Jurkat cells (setting [9]), 0.63 nM in the data set with L929 cells (setting [7]) and 1.17 nM in the data set with L929 cells (setting [8]).
For `CNC(=O)c1ccc2c(c1)ncn2-c1ccc(CNC(=O)c2noc(Cc3ccccc3)n2)cc1` [QY-7-14, 5-Benzyl-N-(4-(5-(methylcarbamoyl)-1H-benzo[d]imidazol-1-yl)benzyl)-1,2,4-oxadiazol-3-carboxamide], the EC50 in the data set with FADD−/− Jurkat cells (setting [6]) was determined as 180 nM; in the data set with FADD−/− Jurkat cells (setting [9]) it was 24.3 nM; with L929 cells (setting [7]), 4740 nM; in the data set on L929 cells (setting [8]), 962 nM. Besides, the half-life at 1 µM was 77 min in data set [4] and 13.9 min in data set [5].
